Experimental data from PMC8486872, “A rational blueprint for the design of chemically-controlled protein switches” (Nature Communications, 2021).
“And” between values parts separate entries of the source, which are not always exact repeats. Equal values may be shown once.

Test system: SEAP and Luciferase expression in HEK293T cells
Assay: SIMO designer cells (AIR-1/2-GEMS + CDH-1/2-TF)
Format: cell-based
Parameters: Bottom (best-fit value) / Top (best-fit value) / Span (best-fit value): unit not given here
Conditions: for logIC50 (best-fit value): drug in nM
Text: Fig. 5 Orthogonal chemical switches enable implementation of multi-input multi-output control modes in mammalian cells. a Scheme of multi-inputs multi-outputs (MIMO) designer cells where two drugs control two different outputs. b, c Cells were co-transfected with AIR-1/2-GEMS and CDH-3-TF regulate SEAP and Luciferase expression, respectively. […] AIR-1/2-GEMS coupled with SEAP expression circuits were co-transfected with CDH-1/2-TF circuits which control the Luciferase production. Respective drug concentrations ranged from 0.001 nM to 1 µM. All values presented are mean ± s.d. of three replicates and curves were fitted by four-parameters nonlinear regression. b, c, e, f, h, i Source data are available in the source data file.
Finally, we engineered SIMO cells (Fig. 5g) using two designed switches that produce ON and OFF responses upon exposure to the same drug. We transfected cells with combinations of AIR-GEMS and CDH-TFs which controlled the expression of the reporter proteins SEAP and Luciferase, respectively. […] Therefore, computational design expanded the repertoire of protein switches controlled by the same compounds that can be used to simultaneous turn ON and OFF synergistic outputs. […]
AIR-1-GEMS coupled with SEAP expression circuits (i) and CDH-1-TF circuits which control the Luciferase production (j). j-k) Quantification of SEAP and Luciferase activities under Drug-2. AIR-2-GEMS coupled with SEAP expression circuits (k) and CDH-2-TF circuits which control the Luciferase production (l). b-k) Each data point represents the mean of n = 3 biological replicates, and the dose-dependent curve were fitted using four-parameter nonlinear regression.

[1] = Fig S13i, CDH-1-TF control Luciferase expression only, Drug-1 0.01 nM
[2] = Fig S13i, CDH-1-TF control Luciferase expression only, Drug-1 10 nM
[3] = Fig S13i, CDH-1-TF control Luciferase expression only, Drug-1 31.6 nM
[4] = Fig S13i, CDH-1-TF control Luciferase expression only, Drug-1 100 nM
[5] = Fig S13i, CDH-1-TF control Luciferase expression only, Drug-1 316 nM
[6] = Fig S13h, AIR-1-GEMS control SEAP expression only, Drug-1 0.01 nM
[7] = Fig S13h, AIR-1-GEMS control SEAP expression only, Drug-1 0.1 nM
[8] = Fig S13h, AIR-1-GEMS control SEAP expression only, Drug-1 1 nM
[9] = Fig S13h, AIR-1-GEMS control SEAP expression only, Drug-1 316 nM
[10] = sheet Figure5h, Luciferase, four-parameter fit
[11] = sheet Figure5h, SEAP, four-parameter fit

Which SEAP (Fig5h, turn ON via AIR-1-GEMS, 500 nM) does the source give for CN(C)CC#Cc1ccc(OCCCc2sc(N3CCc4cccc(C(=O)Nc5nc6ccccc6s5)c4C3)nc2C(=O)O)c(F)c1 [Drug-1, A-1155463] here?
Its SEAP is 488.063 U/L and 432.803 U/L and 436.708 U/L.

And the SEAP (Fig5h, turn ON via AIR-1-GEMS, 1000 nM)?
Its SEAP is 411.613 U/L and 466.826 U/L and 364.664 U/L.

What about the Luciferase (Fig5h, via CDH-1-TF, 0.005 nM) of the same compound?
The Luciferase was 13170 and 13560 and 13671.

What about the Luciferase (Fig5h, via CDH-1-TF, 0.01 nM) of the same compound?
The Luciferase was 14134 and 13430 and 12324.

And the Luciferase (Fig5h, via CDH-1-TF, 0.05 nM)?
The Luciferase was 14625 and 13685 and 11174.

And the Luciferase (Fig5h, via CDH-1-TF, 0.5 nM)?
The Luciferase was 10957 and 11915 and 9777.

What about the Luciferase (Fig5h, via CDH-1-TF, 1 nM) of the same compound?
Its Luciferase is 11394 and 11027 and 9891.

And the Luciferase (Fig5h, via CDH-1-TF, 5 nM)?
Its Luciferase is 9387 and 10202 and 8501.

What about the Luciferase (Fig5h, via CDH-1-TF, 10 nM) of the same compound?
The Luciferase was 9897 and 9353 and 8698.

And the Luciferase (Fig5h, via CDH-1-TF, 50 nM)?
Its Luciferase is 8493 and 5450 and 4767.

What about the Luciferase (Fig5h, via CDH-1-TF, 100 nM) of the same compound?
Its Luciferase is 6159 and 4105 and 3304.

What about the Luciferase (Fig5h, via CDH-1-TF, 500 nM) of the same compound?
The Luciferase was 6685 and 4541 and 3781.

And the Luciferase [1]?
Its Luciferase is 4.631 RLU and 4.974 RLU and 6.289 RLU.

What about the SEAP [1] of the same compound?
Its SEAP is 47563 U/L and 58731 U/L and 59991 U/L.

What about the SEAP (Fig S13i, CDH-1-TF control Luciferase expression only, Drug-1 0.1 nM) of the same compound?
Its SEAP is 53899 U/L and 50028 U/L and 61321 U/L.

What about the SEAP (Fig S13i, CDH-1-TF control Luciferase expression only, Drug-1 1 nM) of the same compound?
The SEAP was 51520 U/L and 52067 U/L and 58888 U/L.

What about the SEAP (Fig S13i, CDH-1-TF control Luciferase expression only, Drug-1 3.16 nM) of the same compound?
The SEAP was 43654 U/L and 44498 U/L and 55865 U/L.

And the Luciferase [2]?
The Luciferase was 5.35 RLU and 3.637 RLU and 4.7853 RLU.

What about the SEAP [2] of the same compound?
Its SEAP is 47243 U/L and 36047 U/L and 43911 U/L.

And the Luciferase [3]?
The Luciferase was 10.558 RLU and 9.125 RLU and 9.89 RLU.

And the SEAP [3]?
Its SEAP is 41739 U/L and 35234 U/L and 36053 U/L.

What about the Luciferase [4] of the same compound?
Its Luciferase is 6.8735 RLU and 7.9639 RLU and 7.26 RLU.

And the SEAP [4]?
Its SEAP is 32885 U/L and 32749 U/L and 33680 U/L.

What about the Luciferase [5] of the same compound?
The Luciferase was 7.503 RLU and 9.5502 RLU and 5.763 RLU.

And the SEAP [5]?
Its SEAP is 36324 U/L and 29686 U/L and 32588 U/L.

What about the SEAP (Fig S13i, CDH-1-TF control Luciferase expression only, Drug-1 1000 nM) of the same compound?
The SEAP was 22215 U/L and 22717 U/L and 21612 U/L.

What about the Luciferase [6] of the same compound?
Its Luciferase is 7.197 RLU and 7.213 RLU and 7.2493 RLU.

What about the SEAP [6] of the same compound?
Its SEAP is 251 U/L and 231 U/L and 325 U/L.

And the Luciferase [7]?
Its Luciferase is 7.338 RLU and 6.8 RLU and 5.088 RLU.

And the SEAP [7]?
The SEAP was 201 U/L and 203 U/L and 381 U/L.

And the Luciferase [8]?
The Luciferase was 9.026 RLU and 10.0168 RLU.

What about the SEAP [8] of the same compound?
Its SEAP is 267 U/L and 249 U/L and 441 U/L.

And the SEAP (Fig S13h, AIR-1-GEMS control SEAP expression only, Drug-1 3.16 nM)?
Its SEAP is 363 U/L and 301 U/L and 409 U/L.

And the SEAP (Fig S13h, AIR-1-GEMS control SEAP expression only, Drug-1 10 nM)?
The SEAP was 551 U/L and 601 U/L.

What about the SEAP (Fig S13h, AIR-1-GEMS control SEAP expression only, Drug-1 31.6 nM) of the same compound?
The SEAP was 639 U/L and 579 U/L and 471 U/L.

And the SEAP (Fig S13h, AIR-1-GEMS control SEAP expression only, Drug-1 100 nM)?
The SEAP was 421 U/L and 435 U/L and 441 U/L.

And the Luciferase [9]?
The Luciferase was 232.378 RLU and 215.546 RLU and 184.304 RLU.

And the SEAP [9]?
The SEAP was 301 U/L and 339 U/L and 443 U/L.

And the Luciferase (Fig S13h, AIR-1-GEMS control SEAP expression only, Drug-1 1000 nM)?
Its Luciferase is 239.146 RLU and 224.11 RLU and 201.76 RLU.

What about the “Bottom (best-fit value)” value [10] of the same compound?
Its value is 1591.

And the “HillSlope (best-fit value)” value [10]?
Its value is -0.5534.

And the “Span (best-fit value)” value [10]?
Its value is 8125.

What about the “Top (best-fit value)” value [10] of the same compound?
The value was 9717.

What about the “logIC50 (best-fit value)” value [10] of the same compound?
Its value is 1.252.

And the IC50 (sheet Figure5h, Luciferase, four-parameter fit, read-out: IC50 (best-fit value))?
The IC50 was 0.0179 µM.

And the “Bottom (best-fit value)” value [11]?
Its value is 10.72.

What about the “HillSlope (best-fit value)” value [11] of the same compound?
Its value is 0.8045.

And the “Span (best-fit value)” value [11]?
The value was 94.16.

What about the “Top (best-fit value)” value [11] of the same compound?
The value was 104.9.

What about the “logIC50 (best-fit value)” value [11] of the same compound?
Its value is 1.797.
